Calls of active or inactive are those of the source. The rule behind the calls is not given here.
Key:
[1] = system: Fibroblast of cardiac tissue; assay: Inhibition of differentiation of Ang II-induced mouse cardiac fibroblast to myofibroblast assessed as decrease in alpha-SMA expression levels at 1 uM preincubated for 2 hrs followed by Ang-II stimulation and further incubated for 24 hrs by immunofluorescence assay; type: functional, cell-based; settings: time 26.0 hrs
[2] = target: T1, DCN1-like protein 5 (Homo sapiens, UniProt Q9BTE7); assay: Binding affinity to DCN5 (unknown origin) assessed as inhibitory constant
T1 sequence (Q9BTE7 whole entry): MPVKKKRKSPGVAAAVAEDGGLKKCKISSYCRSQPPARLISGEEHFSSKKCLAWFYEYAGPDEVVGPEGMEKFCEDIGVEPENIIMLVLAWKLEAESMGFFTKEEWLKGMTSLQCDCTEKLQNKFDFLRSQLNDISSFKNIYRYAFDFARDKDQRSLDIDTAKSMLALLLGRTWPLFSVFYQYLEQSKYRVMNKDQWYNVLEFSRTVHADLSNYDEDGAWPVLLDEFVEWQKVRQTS

[3] = system: Cardiac fibroblast; assay: Inhibition of DCN1 in Ang II-treated Sprague-Dawley rat cardiac fibroblast assessed as inhibition of cell proliferation preincubated for 2 hrs followed by Ang-II stimulation and further incubated for 24 hrs by MTT assay; type: cell-based; settings: dose 0.1-3 µM, time 26.0 hrs
[4] = system: Fibroblast of cardiac tissue; assay: Reversal of Ang II-induced increase in DCN1 secretion in mouse cardiac fibroblast at 1 uM preincubated for 2 hrs followed by Ang-II stimulation and further incubated for 24 hrs by western blot analysis; type: functional, cell-based; settings: time 26.0 hrs
[5] = Toxicity in 24 hr starved C57BL/6 mouse assessed as pathological change in liver at 2 g/Kg administered via gavage measured after 2 weeks by H and E staining based histopathological analysis; type: tissue-based; settings: in vivo, po, 2000 mg/kg
[6] = Toxicity in 24 hr starved C57BL/6 mouse assessed as pathological change in kidney at 2 g/Kg administered via gavage measured after 2 weeks by H and E staining based histopathological analysis; type: tissue-based; settings: in vivo, po, 2000 mg/kg
[7] = system: Cardiac fibroblast; assay: Inhibition of intracellular DCN1 in Sprague-Dawley rat cardiac fibroblast measured between 42 to 62 degC at 10 uM incubated for 5 hrs by cellular thermal shift assay; type: cell-based
[8] = system: Fibroblast of cardiac tissue; assay: Effect on Cul4B neddylation in mouse cardiac fibroblast at 1 uM preincubated for 2 hrs by Western blot analysis; type: functional, cell-based
[9] = system: Fibroblast of cardiac tissue; assay: Antifibrotic effect in SD rat cardiac fibroblast assessed as reduction in Ang II-induced collagen I upregulation preincubated for 2 hrs followed by Ang II-stimulation and further incubated for 24 hrs by western blot analysis (reference value: 71 %); type: functional; settings: time 26 hrs
[10] = Toxicity in 24 hr starved C57BL/6 mouse assessed as pathological change in spleen at 2 g/Kg administered via gavage measured after 2 weeks by H and E staining based histopathological analysis; type: tissue-based; settings: in vivo, po, 2000 mg/kg
[11] = system: Fibroblast of cardiac tissue; assay: Effect on Ang II-induced in Cul1 neddylation in mouse cardiac fibroblast at 1 uM preincubated for 2 hrs followed by Ang-II stimulation and further incubated for 24 hrs by western blot analysis; type: functional, cell-based; settings: time 26.0 hrs
[12] = Cytotoxicity against Sprague-Dawley rat cardiac fibroblast by MTT assay; type: toxicity, cell-based, Fibroblast of cardiac tissue; settings: cardiac fibroblasts
[13] = Toxicity in 24 hr starved C57BL/6 mouse assessed as change in body weight at 2 g/Kg administered via gavage measured upto 2 weeks; settings: in vivo, po, 2000 mg/kg
[14] = system: Fibroblast of cardiac tissue; assay: Reversal of Ang II-induced increase in cullin 3 secretion in mouse cardiac fibroblast at 1 uM preincubated for 2 hrs followed by Ang-II stimulation and further incubated for 24 hrs by western blot analysis; type: functional, cell-based; settings: time 26.0 hrs
[15] = system: Fibroblast of cardiac tissue; assay: Effect on Cul5 neddylation in mouse cardiac fibroblast at 1 uM preincubated for 2 hrs by Western blot analysis; type: functional, cell-based
[16] = system: Fibroblast of cardiac tissue; assay: Effect on Cul1 neddylation in mouse cardiac fibroblast at 1 uM preincubated for 2 hrs by Western blot analysis; type: functional, cell-based
[17] = system: Fibroblast of cardiac tissue; assay: Effect on Ang II-induced in Cul2 neddylation in mouse cardiac fibroblast at 1 uM preincubated for 2 hrs followed by Ang-II stimulation and further incubated for 24 hrs by western blot analysis; type: functional, cell-based; settings: time 26.0 hrs
[18] = Toxicity in 24 hr starved C57BL/6 mouse assessed as change in cardiac function at 2 g/Kg administered via gavage measured after 2 weeks by echocardiography; settings: in vivo, po, 2000 mg/kg
[19] = system: Cardiac fibroblast; assay: Inhibition of DCN1 in TGF-beta-treated Sprague-Dawley rat cardiac fibroblast assessed as inhibition of cell proliferation at 0.1 to 3 uM preincubated for 2 hrs followed by TGF-beta stimulation and further incubated for 24 hrs by MTT assay; type: cell-based; settings: dose 0.1-3 µM, time 26.0 hrs
[20] = target: T2, DCN1-like protein 1 (Homo sapiens, UniProt Q96GG9)
Target sequence in this assay (Q96GG9 whole entry, looked up): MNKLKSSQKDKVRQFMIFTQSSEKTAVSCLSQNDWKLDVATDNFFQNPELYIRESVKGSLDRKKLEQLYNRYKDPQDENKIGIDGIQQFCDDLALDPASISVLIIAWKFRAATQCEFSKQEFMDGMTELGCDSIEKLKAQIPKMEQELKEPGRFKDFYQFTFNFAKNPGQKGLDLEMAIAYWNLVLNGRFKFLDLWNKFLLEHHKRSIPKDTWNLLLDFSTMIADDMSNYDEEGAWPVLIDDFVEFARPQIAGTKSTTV
Description: Binding affinity to DCN1 (unknown origin) assessed as Gibbs free energy change by MM-PBSA method

[21] = system: Fibroblast of cardiac tissue; assay: Reversal of TGF-beta-induced increase in collagen I secretion in mouse cardiac fibroblast at 1 uM preincubated for 2 hrs followed by TGF-beta stimulation and further incubated for 24 hrs by Western blot analysis; type: functional, cell-based; settings: time 26.0 hrs
[22] = target: T3, DCN1-like protein 4 (Homo sapiens, UniProt Q92564); assay: Binding affinity to DCN4 (unknown origin) assessed as inhibitory constant
T3 sequence (Q92564 whole entry): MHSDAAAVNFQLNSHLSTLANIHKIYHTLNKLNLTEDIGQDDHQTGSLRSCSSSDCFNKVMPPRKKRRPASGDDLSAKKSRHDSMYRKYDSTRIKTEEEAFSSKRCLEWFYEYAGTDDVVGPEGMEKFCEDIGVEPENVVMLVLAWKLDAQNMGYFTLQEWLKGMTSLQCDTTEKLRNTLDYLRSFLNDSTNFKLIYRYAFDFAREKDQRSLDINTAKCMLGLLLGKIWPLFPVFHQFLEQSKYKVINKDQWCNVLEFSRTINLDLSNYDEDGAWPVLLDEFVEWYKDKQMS

[23] = target: T2, DCN1-like protein 1; remark: listed apart in the source
Target sequence in this assay (Q96GG9 whole entry, looked up): as the sequence (Q96GG9 whole entry, looked up) above
Description: Binding affinity to DCN1 (unknown origin) assessed as change in entropy by MM-PBSA method

[24] = Cytotoxicity against Sprague-Dawley rat cardiac fibroblast incubated for 24 hrs by MTT assay; type: toxicity, cell-based, Fibroblast of cardiac tissue; settings: cardiac fibroblasts
[25] = Toxicity in 24 hr starved C57BL/6 mouse assessed as animal survival at 2 g/Kg administered via gavage measured upto 2 weeks; settings: in vivo, po, 2000 mg/kg
[26] = system: Fibroblast of cardiac tissue; assay: Effect on Ang II-induced in Cul4B neddylation in mouse cardiac fibroblast at 1 uM preincubated for 2 hrs followed by Ang-II stimulation and further incubated for 24 hrs by western blot analysis; type: functional, cell-based; settings: time 26.0 hrs
[27] = system: Fibroblast of cardiac tissue; assay: Effect on Cul2 neddylation in mouse cardiac fibroblast at 1 uM preincubated for 2 hrs by Western blot analysis; type: functional, cell-based
[28] = system: Fibroblast of cardiac tissue; assay: Effect on Ang II-induced in Cul5 neddylation in mouse cardiac fibroblast at 1 uM preincubated for 2 hrs followed by Ang-II stimulation and further incubated for 24 hrs by western blot analysis; type: functional, cell-based; settings: time 26.0 hrs
[29] = target: DCN1-like protein 2 (Homo sapiens, UniProt Q6PH85); assay: Binding affinity to DCN2 (unknown origin) assessed as inhibitory constant
DCN1-like protein 2, sequence (Q6PH85 whole entry): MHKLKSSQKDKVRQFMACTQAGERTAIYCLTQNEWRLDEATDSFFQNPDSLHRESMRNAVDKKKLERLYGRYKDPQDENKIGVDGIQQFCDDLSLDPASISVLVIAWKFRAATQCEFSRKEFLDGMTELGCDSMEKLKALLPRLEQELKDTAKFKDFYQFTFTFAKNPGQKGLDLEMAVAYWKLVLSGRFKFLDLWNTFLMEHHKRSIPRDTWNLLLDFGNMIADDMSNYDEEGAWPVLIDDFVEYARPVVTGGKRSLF

[30] = system: Cardiac fibroblast; assay: Inhibition of DCN1 in Sprague-Dawley rat cardiac fibroblast assessed as suppression in DCN1-UBC12 interaction by measuring reduction in UBC12 level at 10 uM incubated for 5 hrs co-incubated with DCN1 antibody by co-immunoprecipitation pull down assay; type: cell-based
[31] = target: T2, DCN1-like protein 1; assay: Binding affinity to DCN1 (unknown origin) assessed as inhibitory constant
Target sequence in this assay (Q96GG9 whole entry): as the sequence (Q96GG9 whole entry, looked up) above

COc1cc(-c2nc(SCc3ccc(Cl)cc3)nc(Sc3nnnn3C)c2C#N)cc(OC)c1OC
inhibition [1]: Active | Ki [2]: 28.9 µM | inhibition [3]: Active | Activity [4]: Active | Activity [5]: Non-Toxic | Activity [6]: Non-Toxic | inhibition [7]: Active | Activity [8]: Active | inhibition (INH) [9]: 33% | Activity [10]: Non-Toxic | Activity [11]: Active | IC50 [12]: 27.3 µM | Activity [13]: Non-Toxic | Activity [14]: Active | Activity [15]: Active | Activity [16]: Active | Activity [17]: Active | Activity [18]: Non-Toxic | inhibition [19]: Dose-Dependent Effect | deltaG [20]: -8.75 kcal/mol | Activity [21]: Active | Ki [22]: 22.4 µM | -TdeltaS [23]: 11.2 kcal/mol | IC50 at 24 h [24]: 27.3 µM | Activity [25]: Non-Toxic | Activity [26]: Active | Activity [27]: Active | Activity [28]: Active | Ki [29]: 18.8 µM | inhibition [30]: Active | Ki [31]: 0.00826 µM

— ChEMBL document CHEMBL5042502, “Discovery of Potent and Selective 2-(Benzylthio)pyrimidine-based DCN1-UBC12 Inhibitors for Anticardiac Fibrotic Effects” (J Med Chem, 2022)
